Measurements as given in US10385097B2, “Ether compounds for treatment of medical disorders” (Achillion Pharmaceuticals, Inc., priority 2015, dated 2019).
Like-named read-outs stand apart in the source and are kept apart here.

Target: T1, Human Factor D (Homo sapiens, UniProt P00746)
T1 construct: purified from human serum; purchased Complement Technology, Inc; host or cells: human serum (natural protein, not recombinant)
Assay: Human Factor D Assay
Type: biochemical
Method: Example 8. Human Factor D Assay
Human Factor D (purified from human serum, Complement Technology, Inc.) at 80 nM final concentration is incubated with test compound at various concentrations for 5 minutes at room temperature in 50 mM Tris, 1M NaCl, pH 7.5. A synthetic substrate Z-L-Lys-SBzl and DTNB (Ellman's reagent) are added to final concentrations of 100 μM each. Absorbance at 405 nm (A405) is recorded at 30 second intervals for 30 minutes using a microplate spectrophotometer. IC50 values are calculated by nonlinear regression of complement Factor D reaction rates as a function of test compound concentration.

[1] = Table 1, Human Factor D 80 nM, substrate Z-L-Lys-SBzl, read-out: IC50

T1 sequence (P00746 26-253): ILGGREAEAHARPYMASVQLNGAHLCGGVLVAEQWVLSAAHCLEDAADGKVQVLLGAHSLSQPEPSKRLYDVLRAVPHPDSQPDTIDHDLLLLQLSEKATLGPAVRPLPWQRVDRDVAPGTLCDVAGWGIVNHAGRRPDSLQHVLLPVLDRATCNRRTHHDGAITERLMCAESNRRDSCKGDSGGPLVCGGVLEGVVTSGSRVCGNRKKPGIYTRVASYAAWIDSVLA

SMILES	IC50 [1] [µM]	further results
CC(=O)c1cn(CC(=O)N2C[C@H](F)C[C@H]2C(=O)Nc2cccc(Br)n2)c2ccc(OCC[S+]([O-])CC3(C)COC3)cc12 (some centres unmarked) [Cmp 4]		IC50 (Table 3, Human Factor D 80 nM, substrate Z-L-Lys-SBzl, read-out: (IC50 (Stars))): < 1 µM
CC(=O)c1cn(CC(=O)N2C[C@H](F)C[C@H]2C(=O)Nc2cccc(OC(F)(F)F)c2F)c2cc(OCC3CC3)ccc12 [Cmp 4]	< 1	
CC(=O)c1cn(CC(=O)N2C[C@H](F)C[C@H]2C(=O)NCc2cccc(Cl)c2F)c2cc(OCCC3CC3)ccc12 [Cmp 5]		IC50: < 1 µM
CC(=O)c1cn(CC(=O)N2C[C@H](F)C[C@H]2C(=O)Nc2cccc(Br)n2)c2ccc(OCCSCC3(C)COC3)cc12 [Cmp 5]		IC50: < 1 µM
CC(=O)c1cn(CC(=O)N2C[C@H](F)C[C@H]2C(=O)NCc2cccc(Cl)c2F)c2cc(OCC3CC3)ccc12 [Compound 1, (2S,4R)-1-(2-(3-acetyl-6-(cyclopropylmethoxy)-1H-indol-1-yl)acetyl)-N-(3-chloro-2-fluorobenzyl)-4-fluoropyrrolidine-2-carboxamide]	< 1	
CC(=O)c1cn(CC(=O)N2C[C@H](F)C[C@H]2C(=O)NCc2cccc(Cl)c2F)c2cc(OS(=O)(=O)C(F)(F)F)ccc12 [Compound 2, 3-acetyl-1-(2-((2S,4R)-2-(3-chloro-2-fluorobenzylcarbamoyl)-4-fluoropyrrolidin-1-yl)-2-oxoethyl)-1H-indol-6-yl trifluoromethanesulfonate]	< 1	
CC(=O)c1cn(CC(=O)N2[C@@H]3C[C@@H]3C[C@H]2C(=O)NCc2cccc(Cl)c2F)c2cc(OCC3CC3)ccc12 [Compound 3, (1R,3S,5R)-2-(2-(3-acetyl-6-(cyclopropylmethoxy)-1H-indol-1-yl)acetyl)-N-(3-chloro-2-fluorobenzyl)-2-azabicyclo[3.1.0]hexane-3-carboxamide]	< 1	
CCOP(=O)(COc1ccc2c(C(C)=O)cn(CC(=O)N3C[C@H](F)C[C@H]3C(=O)NCc3cccc(Cl)c3F)c2c1)OCC [Compound 7, Diethyl(((3-acetyl-1-(2-((2S,4R)-2-((3-chloro-2-fluorobenzyl)carbamoyl)-4-fluoropyrrolidin-1-yl)-2-oxoethyl)-1H-indol-6-yl)oxy)methyl)phosphonate]	< 1	
CC(=O)c1cn(CC(=O)N2C[C@H](F)C[C@H]2C(=O)NCc2cccc(Cl)c2F)c2cc(OCP(=O)(O)O)ccc12 [Compound 8, (((3-Acetyl-1-(2-((2S,4R)-2-((3-chloro-2-fluorobenzyl)carbamoyl)-4-fluoropyrrolidin-1-yl)-2-oxoethyl)-1H-indol-6-yl)oxy)methyl)phosphonic acid]	< 1	
CC(=O)c1cn(CC(=O)N2C[C@H](F)C[C@H]2C(=O)NCc2cccc(Cl)c2F)c2ccc(OS(=O)(=O)C(F)(F)F)cc12 [Compound 9, 3-acetyl-1-(2-((2S,4R)-2-(3-chloro-2-fluorobenzylcarbamoyl)-4-fluoropyrrolidin-1-yl)-2-oxoethyl)-1H-indol-5-yl trifluoromethanesulfonate]	< 1	
CCOP(=O)(COc1ccc2c(c1)c(C(C)=O)cn2CC(=O)N1C[C@H](F)C[C@H]1C(=O)NCc1cccc(Cl)c1F)OCC [Compound 10, Diethyl(((3-acetyl-1-(2-((2S,4R)-2-((3-chloro-2-fluorobenzyl)carbamoyl)-4-fluoropyrrolidin-1-yl)-2-oxoethyl)-1H-indol-5-yl)oxy)methyl)phosphonate]	< 1	
CC(=O)c1cn(CC(=O)N2C[C@H](F)C[C@H]2C(=O)NCc2cccc(Cl)c2F)c2ccc(OCP(=O)(O)O)cc12 [Compound 11, (((3-acetyl-1-(2-((2S,4R)-2-((3-chloro-2-fluorobenzyl)carbamoyl)-4-fluoropyrrolidin-1-yl)-2-oxoethyl)-1H-indol-5-yl)oxy)methyl)phosphonic acid]	< 1	
CC(=O)c1cn(CC(=O)N2C[C@H](F)C[C@H]2C(=O)NCc2cccc(Cl)c2F)c2cc(OCP(=O)(OCOC(=O)OC(C)C)OCOC(=O)OC(C)C)ccc12 [Compound 12, (((3-acetyl-1-(2-((2S,4R)-2-(3-chloro-2-fluorobenzylcarbamoyl)-4-fluoropyrrolidin-1-yl)-2-oxoethyl)-1H-indol-6-yloxy)methyl)phosphoryl)bis(oxy)bis(methylene) isopropyl dicarbonate]	< 1	
CC(=O)c1cn(CC(=O)N2C[C@H](F)C[C@H]2C(=O)NCc2cccc(Cl)c2F)c2cc(OCP(=O)(O)OCOC(=O)OC(C)C)ccc12 [Compound 13, (((((3-Acetyl-1-(2-((2S,4R)-2-((3-chloro-2-fluorobenzyl)carbamoyl)-4-fluoropyrrolidin-1-yl)-2-oxoethyl)-1H-indol-6-yl)oxy)methyl)(hydroxy)phosphoryl)oxy)methyl isopropyl carbonate]		IC50: < 1 µM
CCOP(=O)(CC)COc1ccc2c(C(C)=O)cn(CC(=O)N3C[C@H](F)C[C@H]3C(=O)NCc3cccc(Cl)c3F)c2c1 (stereo partly drawn) [Compound 14, Ethyl (((3-acetyl-1-(2-((2S,4R)-2-((3-chloro-2-fluorobenzyl)carbamoyl)-4-fluoropyrrolidin-1-yl)-2-oxoethyl)-1H-indol-6-yl)oxy)methyl)(ethyl)phosphinate]	< 1	
CC(=O)c1cn(CC(=O)N2C[C@H](F)C[C@H]2C(=O)NCc2cccc(Cl)c2F)c2cc(OCS(=O)(=O)NC(C)(C)C)ccc12 [Compound 15, (2S,4R)-1-(2-(3-Acetyl-6-((N-(tert-butyl)sulfamoyl)methoxy)-1H-indol-1-yl)acetyl)-N-(3-chloro-2-fluorobenzyl)-4-fluoropyrrolidine-2-carboxamide]		IC50: < 1 µM
CCP(=O)(O)COc1ccc2c(C(C)=O)cn(CC(=O)N3C[C@H](F)C[C@H]3C(=O)NCc3cccc(Cl)c3F)c2c1 [Compound 16, (((3-Acetyl-1-(2-((2S,4R)-2-((3-chloro-2-fluorobenzyl)carbamoyl)-4-fluoropyrrolidin-1-yl)-2-oxoethyl)-1H-indol-6-yl)oxy)methyl)(ethyl)phosphinic Acid]		IC50: < 1 µM
CC(=O)c1cn(CC(=O)N2C[C@H](F)C[C@H]2C(=O)NCc2cccc(Cl)c2F)c2cc(OCS(N)(=O)=O)ccc12 [Compound 17, (2S,4R)-1-(2-(3-acetyl-6-(sulfamoylmethoxy)-1H-indol-1-yl)acetyl)-N-(3-chloro-2-fluorobenzyl)-4-fluoropyrrolidine-2-carboxamide]	< 1	
CCOP(=O)(COc1ccc2c(C(C)=O)cn(CC(=O)N3C[C@H](F)C[C@H]3C(=O)N[C@H](C)c3cccc(Cl)c3F)c2c1)OCC [Compound 18, diethyl (3-acetyl-1-(2-((2S,4R)-2-((R)-1-(3-chloro-2-fluorophenyl)ethylcarbamoyl)-4-fluoropyrrolidin-1-yl)-2-oxoethyl)-1H-indol-6-yloxy)methylphosphonate]	< 1	
CC(=O)c1cn(CC(=O)N2C[C@H](F)C[C@H]2C(=O)N[C@H](C)c2cccc(Cl)c2F)c2cc(OCP(=O)(O)O)ccc12 [Compound 19, (3-acetyl-1-(2-((2S,4R)-2-((R)-1-(3-chloro-2-fluorophenyl)ethylcarbamoyl)-4-fluoropyrrolidin-1-yl)-2-oxoethyl)-1H-indol-6-yloxy)methylphosphonic acid]	< 1	
CCCCCCCCCCCCCCCCOCCCOP(=O)(O)COc1ccc2c(C(C)=O)cn(CC(=O)N3C[C@H](F)C[C@H]3C(=O)NCc3cccc(Cl)c3F)c2c1 [Compound 20, 3-(hexadecyloxy)propyl hydrogen (3-acetyl-1-(2-((2S,4R)-2-(3-chloro-2-fluorobenzylcarbamoyl)-4-fluoropyrrolidin-1-yl)-2-oxoethyl)-1H-indol-6-yloxy)methylphosphonate]	< 1	
CC(=O)c1cn(CC(=O)N2C[C@H](F)C[C@H]2C(=O)NCc2cccc(Cl)c2F)c2cc(OCP(=O)(OCOC(=O)C(C)(C)C)OCOC(=O)C(C)(C)C)ccc12 [Compound 21, (((((3-Acetyl-1-(2-((2S,4R)-2-((3-chloro-2-fluorobenzyl)carbamoyl)-4-fluoropyrrolidin-1-yl)-2-oxoethyl)-1H-indol-6-yl)oxy)methyl)phosphoryl)bis(oxy))bis(methylene) bis(2,2-dimethylpropanoate)]		IC50: < 1 µM
CC(=O)c1cn(CC(=O)N2C[C@H](F)C[C@H]2CNS(=O)(=O)c2cccc(Cl)c2F)c2cc(OCP(=O)(O)O)ccc12 [Compound 22, (3-acetyl-1-(2-((2S,4R)-2-((3-chloro-2-fluorophenylsulfonamido)methyl)-4-fluoropyrrolidin-1-yl)-2-oxoethyl)-1H-indol-6-yloxy)methylphosphonic acid]	< 1	
CCC(=O)OC(OP(=O)(COc1ccc2c(C(C)=O)cn(CC(=O)N3C[C@H](F)C[C@H]3C(=O)NCc3cccc(Cl)c3F)c2c1)OC(OC(=O)CC)C(C)C)C(C)C (stereo partly drawn) [Compound 23, 1,1′-(((3-acetyl-1-(2-((2S,4R)-2-(3-chloro-2-fluorobenzylcarbamoyl)-4-fluoropyrrolidin-1-yl)-2-oxoethyl)-1H-indol-6-yloxy)methyl)phosphoryl)bis(oxy)bis(2-methylpropane-1,1-diyl) dipropionate]	< 1	
CC(=O)c1cn(CC(=O)N2C[C@H](F)C[C@H]2C(=O)NCc2cccc(Cl)c2F)c2cc(OCP(=O)(N[C@@H](C)C(=O)OC(C)C)N[C@@H](C)C(=O)OC(C)C)ccc12 [Compound 24, (2S,2′S)-isopropyl-2,2′-(((3-acetyl-1-(2-((2S,4R)-2-(3-chloro-2-fluorobenzylcarbamoyl)-4-fluoropyrrolidin-1-yl)-2-oxoethyl)-1H-indol-6-yloxy)methyl)phosphoryl)bis(azanediyl) dipropanoate]		IC50: < 1 µM
CC(=O)c1cn(CC(=O)N2C[C@H](F)C[C@H]2C(=O)Nc2ccc(OC(F)(F)F)c(F)c2)c2cc(OCP(=O)(O)O)ccc12 [Compound 25, (3-acetyl-1-(2-((2S,4R)-4-fluoro-2-(3-fluoro-4-(trifluoromethoxy)phenylcarbamoyl)pyrrolidin-1-yl)-2-oxoethyl)-1H-indol-6-yloxy)methylphosphonic acid]	< 1	
